In the assay the test system is 6 Hz (44 mA) seizures, mice. Kind of assay: 6 Hz (44 mA) seizure test. The format is in vivo. The following applies: Mus musculus, ip, pretreatment time 0.5 h.

Among the data in paper PMC11378297, “Discovery and Profiling of New Multimodal Phenylglycinamide Derivatives as Potent Antiseizure and Antinociceptive Drug Candidates” (ACS Chemical Neuroscience, 2024) are ED50 values, retold here.

The ED50 is the dose at which the effect has come halfway, by size or by number of responders.

Structures are written as SMILES.

From the text: Both the aforementioned parameters (ED50 and TD50) enabled the calculation of protective indexes (PIs), which reflect the comparative the benefit–risk ratio of these experimental therapeutic agents.
Four mice per group were randomly assigned to each experimental group in the initial screening experiments (each mouse was used just once). Four groups, each with eight animals, received injections of different doses of the investigated substances in order to determine the ED50 or TD50 values. The PIs for the compounds investigated and reference ASMs were calculated by dividing the TD50 value, as determined in the chimney test by the respective ED50 value, as determined in the MES, scPTZ, or 6 Hz (32 mA or 44 mA) tests (PI = TD50/ED50). The PIs are a measure of the potential therapeutic window of the tested agent.
All substances were suspended in Tween 80 (1% aqueous solution) and administered i.p. as a single injection at a volume of 10 mL/kg. On each day of experimentation, fresh solutions were prepared.

On to `CC(=O)N[C@@H](C(=O)N1CCN(c2cccc(C(F)(F)F)c2)CC1)c1ccccc1` [(R)-31, (R)-N-(2-Oxo-1-phenyl-2-(4-(3-(trifluoromethyl)phenyl)piperazin-1-yl)ethyl)acetamide], for which the 50% effective dose (ED50) came to 44.2 mg/kg.
